Experimental findings from publication PMC3248958 (Bioorganic & medicinal chemistry, 2011) are described below.

The structures appear in SMILES notation.

For the first experiment, the target named is T1, Human Aromatase (Homo sapiens, UniProt P11511).
T1 sequence (P11511 1-503): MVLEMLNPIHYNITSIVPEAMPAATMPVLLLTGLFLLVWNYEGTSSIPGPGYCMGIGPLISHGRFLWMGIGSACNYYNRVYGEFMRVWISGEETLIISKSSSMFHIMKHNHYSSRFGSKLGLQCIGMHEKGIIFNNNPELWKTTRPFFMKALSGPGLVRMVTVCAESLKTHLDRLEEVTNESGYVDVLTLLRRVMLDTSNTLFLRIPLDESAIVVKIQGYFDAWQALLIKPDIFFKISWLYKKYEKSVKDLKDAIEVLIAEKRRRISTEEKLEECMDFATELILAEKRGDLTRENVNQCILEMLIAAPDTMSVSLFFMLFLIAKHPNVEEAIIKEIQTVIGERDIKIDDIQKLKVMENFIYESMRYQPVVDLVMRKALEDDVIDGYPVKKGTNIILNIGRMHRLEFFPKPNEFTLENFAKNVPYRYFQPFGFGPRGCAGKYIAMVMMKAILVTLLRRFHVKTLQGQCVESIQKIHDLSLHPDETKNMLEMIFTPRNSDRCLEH
In words: Aromatase assay. The experiment is classed as biochemical.
Details: not given
`c1cncc(-c2nsc(-c3cccnc3)n2)c1` [Compound 3b]: the “times higher aromatase inhibitory activity than trans-resveratrol” value is recorded as 30-125 times and the “times more potent than the lead compound 3a as an aromatase inhibitor” value is recorded as “greater than 250 times”.

The experiment is the same for the next values; noted with them: relative to trans-resveratrol.
In the case of `c1cc(-c2nsc(-c3ccncc3)n2)ccn1` [Compound 3c], the “times higher aromatase inhibitory activity than trans-resveratrol” value was 30-125 times.

A further experiment has as its system quinone reductase 1 (QR1). Put plainly: Quinone reductase 1. The experiment is classed as cell-based, mouse. As to conditions: Hepa 1c1c7 cells; determined for compounds with induction ratios > 2.
`Clc1ccc(-c2nsc(-c3ccc(Cl)c(Cl)c3)n2)cc1Cl` [Compound 3v, 3,5-Bis(3,4-dichlorophenyl)-1,2,4-thiadiazole]: the “QR1 Assay CD (concentration that doubles the activity)” value was over 50 µM.
On the same count and under the same terms, in the case of `c1cc(-c2nsc(-c3ccncc3)n2)ccn1` [Compound 3c] it was over 50 µM; in that of `Oc1ccc(-c2nsc(-c3ccc(O)cc3)n2)cc1` [Compound 3jj], over 50 µM; in that of `Oc1ccc(CCc2cc(O)cc(O)c2)cc1` [dihydroresveratrol, reference compound], over 50 µM.
In the case of `Ic1ccc(-c2nsc(-c3ccc(I)cc3)n2)cc1` [Compound 3l, 3,5-Bis(4-iodophenyl)-1,2,4-thiadiazole], the “QR1 Assay CD (concentration that doubles the activity)” value is over 50 µM.
As to `Nc1ccc(-c2nsc(-c3ccc(N)cc3)n2)cc1` [Compound 3ll, 3,5-Bis(4-aminophenyl)-1,2,4-thiadiazole], the “QR1 Assay CD (concentration that doubles the activity)” value was over 50 µM.
On to `N#Cc1cccc(-c2nsc(-c3cccc(C#N)c3)n2)c1` [Compound 3hh, 3,3′-(1,2,4-Thiadiazole-3,5-diyl)dibenzonitrile], for which the “QR1 Assay CD (concentration that doubles the activity)” value is over 50 µM.
The same measure, in the same setting: in the case of `N#Cc1ccc(-c2nsc(-c3ccc(C#N)cc3)n2)cc1` [Compound 3gg, 4,4′-(1,2,4-Thiadiazole-3,5-diyl)dibenzonitrile] it was over 50 µM.
With `COc1ccc(-c2nsc(-c3ccc(OC)cc3)n2)cc1` [Compound 3g], the “QR1 Assay CD (concentration that doubles the activity)” value was over 50 µM.
The same measure, in the same setting: in the case of `CCCCc1ccc(-c2nsc(-c3ccc(CCCC)cc3)n2)cc1` [Compound 3z, 3,5-Bis(4-butylphenyl)-1,2,4-thiadiazole] it was over 50 µM; in that of `O=[N+]([O-])c1ccc(-c2nsc(-c3ccc([N+](=O)[O-])cc3)n2)cc1` [Compound 3ff], over 50 µM.
The same measure, in the same setting: in the case of `Cc1ccc(-c2nsc(-c3ccc(C)cc3Br)n2)c(Br)c1` [Compound 3dd, 3,5-Bis(2-bromo-4-methylphenyl)-1,2,4-thiadiazole] it was over 50 µM.
Still for that read-out and setting: next, `Cc1ccc(-c2nsc(-c3ccc(C)cc3)n2)cc1` [Compound 3x, 3,5-Di-p-tolyl-1,2,4-thiadiazole]: over 50 µM.

The same experiment, now with this note: Hepa 1c1c7 cells; positive control.
Regarding `O=c1cc(-c2ccc(Br)cc2)oc2ccccc12` [4'-Bromoflavone, reference compound], the “QR1 Assay CD of positive control” value came to 0.01 M.

Test system in another experiment: not given
Assay: not given
As to conditions: tested at 400 μM of each compound.
Regarding `c1cc(-c2nsc(-c3ccncc3)n2)ccn1` [Compound 3c], the “DPPH assay % inhibition” value is reported as -35.6±0.4%.
Same read-out and setting: next, `c1cncc(-c2nsc(-c3cccnc3)n2)c1` [Compound 3b]: -16.1±1.1%.
